Test [1] concerns D-6 African P. falciparum clone. The conditions noted are these: D-6 African clone; cited from earlier work.
Test [2] relates to W-2 Indochina P. falciparum clone. The following applies: W-2 Indochina clone; cited from earlier work.
In test [3] the test system is D-6 African P. falciparum clone. Put plainly: in vitro testing against P. falciparum, D-6 African clone. Format: cell-based. From the text:
(§1) The analog 1 was sent to Walter Reed Army Institute of Research (WRAIR) for in vitro testing against P. falciparum using modifications of the procedures of Desjardins et al, 1979, and Milhous et al, 1985, (Desjardins, R. E., C. J. Canfield, D. E. Haynes, and J. D. Chulay, Antimicrob. Angents Chemother., Vol. 16, 710-718 (1979); Milhous, W. K., N. F. Weatherly, J. H. Bowdre, and R. E. Desjardins, Antimicrob. Agents Chemother. Vol. 27, 525-530, 1985.) to assess the intrinsic activity of compound 1 as an anti-malarial drug relative to simultaneous known controls such as chloroquine, mefloquine; pyrimethamine, sulfadoxine, tetracycline, qinghaosu or quinine. Since some anti-malarials are more static than cidal in action, it is necessary to extend the incubation period to assess the effects of such drugs on parasite growth rates. In order to insure exponential parasite growth and maximum uptake of radioisotope throughout the extended incubation, reduced starting parasitemias (0.2%) and reduced red cell hematocrits (1.0%) are required. As a result, drugs which are actively incorporated into erythrocytes (such as chloroquine or qinghaosu) will have slightly lower 50% inhibitory concentrations than in other assay systems employing higher red cell hematocrits. Except for the contribution from the 10% normal pooled human plasma and added 10^-10 M (0.014 ng/ml) PABA, the culture medium is folate-free. The trace amount of PABA insures exponential growth of the sulfonamide-susceptible parasite clone without antagonizing the activity of antifol anti-malarials.
(§2) All test compounds are solubilized in DMSO and diluted 400-fold (to rule out a DMSO effect) in culture medium with plasma for a starting concentration of at least 12,500 ng/ml. Drugs are subsequently diluted fivefold using the Cetus Pro/Pette™ system utilizing a range of concentrations from 0.8 ng/ml to 12,500 ng/ml. Fifty percent inhibitory concentrations are reported in ng/ml.
(§3) Table 1 summarizes differences in the susceptibility profiles of the two control P. falciparum clones (Oduola, A. M. J., N. F. Weatherly, J. H. Bowdre, R. E. Desjardins, Thirty-second Annual Meeting, American Society of Tropical Medicine and Hygiene, San Antonio, Tex., Dec. 4-8, 1983) and provides results of testing. The W-2 Indochina P. falciparum clone is resistant to chloroquine, pyrimethamine and sulfadoxine but […]. The D-6 African P. falciparum clone is susceptible to chloroquine, pyrimethamine and sulfadoxine but […].

The subject of test [4] is W-2 Indochina P. falciparum clone. Put plainly: in vitro testing against P. falciparum, W-2 Indochina clone. The format is cell-based. The following applies: for IC50: Plasmodium falciparum.
Source text: as §1, §2, §3

Another test deals with P. falciparum. Put plainly: in vitro testing against P. falciparum (two strains together / assay medium). Format: cell-based.
Source text: as §1, with “Except for the contribution from the 10% normal pooled human plasma and added 10^-10 M (0.014 ng/ml) PABA, the culture medium is folate-free. The trace amount of PABA insures exponential growth of the sulfonamide-susceptible parasite clone without antagonizing the activity of antifol anti-malarials.” left out

Where [5] appears, read: Plasmodium falciparum, D-6 African clone (strain head not given; assigned), read-out: IN VITRO ED50 (fifty percent inhibitory concentration).
Where [6] appears, read: Plasmodium falciparum, D-6 African clone (strain head not given; assigned), read-out: IN VITRO ED50 (fifty percent inhibitory concentration), × 10^-9 M.

Molecules are shown by their SMILES. Where two headings read alike, the source gives them in different places.

For `COc1ncnc(NS(=O)(=O)c2ccc(N)cc2)c1OC` [sulfadoxine], the results for the “susceptibility of the clone” value in test [1] and in test [2] were “susceptible” and “resistant”, respectively.
On to `CCO[C@H]1O[C@@H]2O[C@@]3(C)CC[C@H]4[C@H](C)CC[C@@H]([C@H]1C)[C@@]24OO3` [Arteether], for which the “IN VITRO ED50 (fifty percent inhibitory concentration)” value in test [3] (D-6 African clone (strain head not given; assigned)) was found to be 1.87 ng/mL; in test [4] (W-2 Indochina clone (strain head not given; assigned)), 1.23 ng/mL. Moreover, the IC50 in test [3] (D-6 African clone (strain head not given; assigned), read-out: IN VITRO ED50 (fifty percent inhibitory concentration), × 10^-9 M) came out at 6 nM.
For the compound `C[C@@]12CC[C@H]3CCC[C@H]4CC(=O)O[C@H](O1)[C@@]34OO2` (relative stereo) [Compound 1, (±)-13,14-desmethylartemisinin], the IC50 in test [3] (setting [5]) was 21.1 ng/mL; in test [3] (setting [6]) it was 83 nM. Further, the “potency relative to chloroquine” value in test [4] (W-2 Indochina strain) is on record as “about three times as potent as the classical antimalarial agent chloroquine”. In addition, the “activity relative to the natural product Qinghaosu” value in test [4] (W-2 Indochina strain, fraction as active as Qinghaosu) is listed as “approximately 1/2”. Further, the “antimalarial activity (in words)” value with P. falciparum (data of Table 1) is reported as “highly active antimalarial agent”. Further, in the test on P. falciparum (varies with strain, versus the other five compounds), the antimalarial potency result is recorded as “still in the nanogram range”.
Take `C[C@@H]1CC[C@H]2[C@@H](C)C(O)O[C@@H]3O[C@@]4(C)CC[C@@H]1[C@]32OO4` (stereo partly drawn) [Dihydro-quinghaosu]: the IC50 in test [3] (setting [5]) turned out to be 0.47 ng/mL; in test [3] (setting [6]), 1.68 nM.
With `CCc1nc(N)nc(N)c1-c1ccc(Cl)cc1` [pyrimethamine], the results for the “susceptibility of the clone” value in test [1] and in test [2] were “susceptible” and “resistant”, respectively.
In the case of `CCN(CC)CCCC(C)Nc1ccnc2cc(Cl)ccc12` (stereo not drawn) [Chloroquine], the IC50 in test [3] (Plasmodium falciparum, read-out: IN VITRO ED50 (fifty percent inhibitory concentration), ng/ml) was found to be 5.91 ng/mL; in test [3] (Plasmodium falciparum, read-out: IN VITRO ED50 (fifty percent inhibitory concentration), × 10^-9 M), 11.5 nM; in test [4] (read-out: IN VITRO ED50 (fifty percent inhibitory concentration), ng/ml), 26.8 ng/mL; in test [4] (read-out: IN VITRO ED50 (fifty percent inhibitory concentration), × 10^-9 M), 52.1 nM. Moreover, the “susceptibility of the clone” value in test [1] is “susceptible”; in test [2], “resistant”.
Turning to `C[C@@H]1CC[C@H]2[C@@H](C)C(=O)O[C@@H]3O[C@@]4(C)CC[C@@H]1[C@]32OO4` [Qinghaosu, artemisinin], the figures for the IC50 in test [3] (setting [5]) and in test [3] (setting [6]) were 3.09 ng/mL and 11 nM, respectively.
In the case of `OC(c1cc(C(F)(F)F)nc2c(C(F)(F)F)cccc12)C1CCCCN1` (stereo not drawn) [Mefloquine], the values for the IC50 in test [3] (setting [5]) and in test [3] (setting [6]) were 22.2 ng/mL and 53.7 nM, respectively. Also, the “susceptibility of the clone” value in test [1] is “resistant”; in test [2], “susceptible”.

Source of the values: US5180840A, “Process for preparing analogs of artemisinin” (SRI International, priority 1991, dated 1993).
